Assays:
Ba/F3 ERBB2 YVMA = Ba/F3 ERBB2 YVMA (Homo sapiens, UniProt P04626, DUP772-775, cells depend on it); assay: Cell viability assay (CellTiter Glo) in Ba/F3 cells engineered to express ERBB2 YVMA; format: cell-based, mouse; details: Ba/F3 cells expressing human ERBB2 YVMA mutant, 72 hours, % viability, read-out: Ba/F3 ERBB2 YVMA IC50
Method in brief: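 IL-3-independent mouse Ba/F3 line stably transduced with human ERBB2 YVMA, seeded at 3000 cells/well, exposed to serially diluted compound (≤0.1% DMSO) for 72 h at 37° C. ATP read by CellTiter Glo luminescence, normalised to DMSO and media-only controls; sigmoidal nonlinear regression fit.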

[1] = target: T1, phosphorylated ERBB2 (pERBB2) (Homo sapiens, UniProt P04626); assay: Detection of phosphorylated ERBB2 (pERBB2) by ELISA in BT-474 cells; format: cell-based; details: four hour incubation with compound
T1 construct: endogenous in cells; host or cells: BT-474
Method in brief: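 BT-474 cells treated 4 h at 37 °C, 5% CO2 with four-fold dilutions (10 μM to 0.01 nM final). Lysates analysed by ELISA for pERBB2, TMB read at OD 450 nm. % relative activity normalised to no-cell (low) and 0.1% DMSO-treated (high) controls.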

[2] = target: T2, phosphorylated EGFR (pEGFR) (Homo sapiens, UniProt P00533); assay: Detection of phosphorylated EGFR (pEGFR) in EGF-stimulated A431 cells (AlphaLISA); format: cell-based; details: A431 cells (10% FBS), 4 hours incubation, EGF 30 ng/mL for 10 minutes
T2 construct: performed to measure phosphorylated EGFR levels using A431 cells; endogenous in cells; host or cells: A431
Method in brief: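 Cells in 10% FBS treated with compound 4 h at 37° C., then stimulated 10 min with 30 ng/mL EGF, lysed, and pEGFR measured by AlphaLISA. Inhibition normalized to DMSO and staurosporine controls; IC50 from four-parameter logistic fit.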

T2 sequence (P00533 25-1210): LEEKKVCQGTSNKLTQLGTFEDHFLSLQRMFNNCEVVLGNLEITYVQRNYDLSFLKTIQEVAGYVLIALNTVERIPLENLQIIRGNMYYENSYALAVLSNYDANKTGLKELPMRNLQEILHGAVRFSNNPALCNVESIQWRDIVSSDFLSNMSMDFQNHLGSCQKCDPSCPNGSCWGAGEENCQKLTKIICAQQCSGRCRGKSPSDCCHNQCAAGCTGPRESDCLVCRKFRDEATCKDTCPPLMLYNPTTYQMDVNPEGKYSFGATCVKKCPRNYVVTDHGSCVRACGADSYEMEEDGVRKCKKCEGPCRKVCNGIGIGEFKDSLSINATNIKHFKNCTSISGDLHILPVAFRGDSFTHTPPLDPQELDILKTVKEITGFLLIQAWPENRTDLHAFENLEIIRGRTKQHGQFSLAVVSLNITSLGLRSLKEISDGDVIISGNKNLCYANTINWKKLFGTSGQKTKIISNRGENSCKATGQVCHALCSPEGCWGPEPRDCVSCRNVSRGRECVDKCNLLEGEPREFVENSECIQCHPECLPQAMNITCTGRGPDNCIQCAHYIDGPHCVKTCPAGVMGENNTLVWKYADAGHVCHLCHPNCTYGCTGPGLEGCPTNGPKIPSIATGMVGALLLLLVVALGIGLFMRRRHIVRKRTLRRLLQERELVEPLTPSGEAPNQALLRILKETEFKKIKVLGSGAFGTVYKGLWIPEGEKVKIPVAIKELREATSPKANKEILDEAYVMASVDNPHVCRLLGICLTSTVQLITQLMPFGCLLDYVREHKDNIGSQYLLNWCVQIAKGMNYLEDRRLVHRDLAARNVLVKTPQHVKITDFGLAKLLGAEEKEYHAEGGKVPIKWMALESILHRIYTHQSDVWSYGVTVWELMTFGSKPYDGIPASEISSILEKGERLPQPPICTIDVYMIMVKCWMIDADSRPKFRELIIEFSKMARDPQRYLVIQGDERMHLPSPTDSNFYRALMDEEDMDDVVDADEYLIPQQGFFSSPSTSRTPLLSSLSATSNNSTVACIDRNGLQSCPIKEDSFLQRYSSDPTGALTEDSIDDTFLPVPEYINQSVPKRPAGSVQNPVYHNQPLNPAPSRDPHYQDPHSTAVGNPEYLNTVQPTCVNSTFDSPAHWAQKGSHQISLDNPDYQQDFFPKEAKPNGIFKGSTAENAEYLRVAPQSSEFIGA
T1 sequence (P04626 23-1255): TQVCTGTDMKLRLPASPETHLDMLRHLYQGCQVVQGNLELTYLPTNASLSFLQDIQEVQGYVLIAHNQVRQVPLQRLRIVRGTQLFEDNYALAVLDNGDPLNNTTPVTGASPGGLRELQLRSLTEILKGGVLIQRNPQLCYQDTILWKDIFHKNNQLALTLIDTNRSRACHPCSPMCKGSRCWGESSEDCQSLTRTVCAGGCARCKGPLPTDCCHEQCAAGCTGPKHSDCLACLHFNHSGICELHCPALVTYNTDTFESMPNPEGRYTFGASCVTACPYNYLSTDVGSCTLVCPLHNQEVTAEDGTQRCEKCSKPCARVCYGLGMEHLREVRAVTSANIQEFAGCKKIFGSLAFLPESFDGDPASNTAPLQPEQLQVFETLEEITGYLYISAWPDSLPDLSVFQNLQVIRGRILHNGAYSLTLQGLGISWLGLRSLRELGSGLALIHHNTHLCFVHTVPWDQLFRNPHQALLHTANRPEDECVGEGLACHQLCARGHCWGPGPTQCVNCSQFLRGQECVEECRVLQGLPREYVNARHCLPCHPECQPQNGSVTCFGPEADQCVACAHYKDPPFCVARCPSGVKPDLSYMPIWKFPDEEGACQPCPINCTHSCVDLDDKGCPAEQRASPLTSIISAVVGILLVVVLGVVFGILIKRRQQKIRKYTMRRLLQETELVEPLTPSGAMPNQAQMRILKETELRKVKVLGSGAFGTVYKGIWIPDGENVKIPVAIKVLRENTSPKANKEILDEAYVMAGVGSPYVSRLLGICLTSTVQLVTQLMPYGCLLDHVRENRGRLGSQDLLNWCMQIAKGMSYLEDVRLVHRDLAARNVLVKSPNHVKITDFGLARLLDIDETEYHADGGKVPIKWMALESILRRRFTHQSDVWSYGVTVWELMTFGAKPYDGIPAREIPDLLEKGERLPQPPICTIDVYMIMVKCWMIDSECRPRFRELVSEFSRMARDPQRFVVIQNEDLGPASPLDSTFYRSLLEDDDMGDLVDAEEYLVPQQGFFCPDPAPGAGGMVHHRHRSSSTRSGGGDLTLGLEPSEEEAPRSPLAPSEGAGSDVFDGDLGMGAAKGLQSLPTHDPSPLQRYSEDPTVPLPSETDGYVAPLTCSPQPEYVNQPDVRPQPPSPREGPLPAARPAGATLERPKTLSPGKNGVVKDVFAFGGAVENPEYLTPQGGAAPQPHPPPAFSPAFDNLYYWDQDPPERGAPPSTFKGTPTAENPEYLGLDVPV
Sequence of Ba/F3 ERBB2 YVMA (P04626 with tags, fused parts or gaps DUP772-775): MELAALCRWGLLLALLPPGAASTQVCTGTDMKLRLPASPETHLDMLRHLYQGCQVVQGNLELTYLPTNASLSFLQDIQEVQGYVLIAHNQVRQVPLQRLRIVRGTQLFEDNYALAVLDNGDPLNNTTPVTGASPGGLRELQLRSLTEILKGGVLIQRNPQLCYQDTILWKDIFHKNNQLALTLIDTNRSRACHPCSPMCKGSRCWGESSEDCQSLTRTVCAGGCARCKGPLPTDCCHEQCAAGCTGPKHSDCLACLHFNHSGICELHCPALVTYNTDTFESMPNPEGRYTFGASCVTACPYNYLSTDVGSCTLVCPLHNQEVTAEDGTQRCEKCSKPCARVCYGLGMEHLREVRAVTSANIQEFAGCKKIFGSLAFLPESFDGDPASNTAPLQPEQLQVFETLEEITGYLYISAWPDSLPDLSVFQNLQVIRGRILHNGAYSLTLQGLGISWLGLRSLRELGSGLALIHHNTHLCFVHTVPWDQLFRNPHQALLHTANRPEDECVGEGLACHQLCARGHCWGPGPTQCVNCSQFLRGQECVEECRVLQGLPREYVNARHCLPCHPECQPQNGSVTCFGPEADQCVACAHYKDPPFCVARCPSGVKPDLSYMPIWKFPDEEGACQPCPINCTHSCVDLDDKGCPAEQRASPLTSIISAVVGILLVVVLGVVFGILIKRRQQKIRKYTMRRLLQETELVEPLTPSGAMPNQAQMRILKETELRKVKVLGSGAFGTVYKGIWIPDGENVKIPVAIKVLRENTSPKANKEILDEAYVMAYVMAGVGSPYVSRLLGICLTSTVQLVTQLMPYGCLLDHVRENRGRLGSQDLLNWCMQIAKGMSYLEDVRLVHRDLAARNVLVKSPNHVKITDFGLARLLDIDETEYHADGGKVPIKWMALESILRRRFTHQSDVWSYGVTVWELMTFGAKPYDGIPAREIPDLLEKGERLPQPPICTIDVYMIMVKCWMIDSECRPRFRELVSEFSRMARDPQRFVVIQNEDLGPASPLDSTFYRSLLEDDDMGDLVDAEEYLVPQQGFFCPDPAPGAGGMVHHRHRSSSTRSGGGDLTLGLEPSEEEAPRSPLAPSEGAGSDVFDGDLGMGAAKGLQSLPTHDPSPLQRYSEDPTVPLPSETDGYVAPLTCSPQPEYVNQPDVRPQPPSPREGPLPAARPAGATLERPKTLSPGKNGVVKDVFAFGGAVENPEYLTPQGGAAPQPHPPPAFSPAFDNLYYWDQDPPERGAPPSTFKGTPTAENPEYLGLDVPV

| Compound | GI50 (Ba/F3 ERBB2 YVMA) [nM] | IC50 [1] [nM] | IC50 [2] [nM] |
| --- | --- | --- | --- |
| C=CC(=O)N1CC2CCC(C1)N2c1ccc2ncnc(Nc3ccc(Oc4ccn5ncnc5c4)c(C)c3)c2n1 [Compound 17, 1-(8-{4-[(3-methyl-4-{[1,2,4]triazolo[1,5-a]pyridin-7-yloxy}phenyl)amino]pyrido[3,2-d]pyrimidin-6-yl}-3,8-diazabicyclo[3.2.1]octan-3-yl)prop-2-en-1-one] | 5.91 | 20.1 | 179 |
| C=CC(=O)N1CCN(c2ncc3ncnc(Nc4ccc(Cc5ccc6c(c5)ncn6C)c(C)c4)c3n2)C[C@H]1C [Compound 96, (R)-1-(2-methyl-4-(8-((3-methyl-4-((1-methyl-1H-benzo[d]imidazol-5-yl)methyl)phenyl)amino)pyrimido[5,4-d]pyrimidin-2-yl)piperazin-1-yl)prop-2-en-1-one] | 12.5 | 63.1 | 7290 |
| C=CC(=O)N1CC[C@H](Nc2ccc3ncnc(Nc4ccc(Oc5ccn6ncnc6c5)c(C)c4)c3n2)C1 [Compound 43, 1-[(3S)-3-({4-[(3-methyl-4-{[1,2,4]triazolo[1,5-a]pyridin-7-yloxy}phenyl)amino]pyrido[3,2-d]pyrimidin-6-yl}amino)pyrrolidin-1-yl]prop-2-en-1-one] | 3.93 | 5.11 | 61.2 |
| C=CC(=O)N1CCN(c2ccc3ncnc(Nc4ccc(Oc5ccn6ncnc6c5)c(C)c4)c3n2)[C@H](C)C1 [Compound 11, 1-[(3R)-3-methyl-4-{4-[(3-methyl-4-{[1,2,4]triazolo[1,5-a]pyridin-7-yloxy}phenyl)amino]pyrido[3,2-d]pyrimidin-6-yl}piperazin-1-yl]prop-2-en-1-one] | 17.9 | 16.3 | 2360 |
| C=CC(=O)N1CCCN(c2ccc3ncnc(Nc4ccc(Oc5ccn6ncnc6c5)c(C)c4)c3n2)CC1 [Compound 16, 1-(4-{4-[(3-methyl-4-{[1,2,4]triazolo[1,5-a]pyridin-7-yloxy}phenyl)amino]pyrido[3,2-d]pyrimidin-6-yl}-1,4-diazepan-1-yl)prop-2-en-1-one] | 99.5 | 30.6 | 8010 |
| C=CC(=O)N1CCN(c2ccc3ncnc(Nc4ccc(Oc5ccc6c(c5)ncn6C)c(C)c4)c3n2)[C@@H](C)C1 [Compound 67, 1-[(3S)-3-methyl-4-[4-({3-methyl-4-[(1-methyl-1,3-benzodiazol-5-yl)oxy]phenyl}amino)pyrido[3,2-d]pyrimidin-6-yl]piperazin-1-yl]prop-2-en-1-one] | 13.9 | 28.2 | 2490 |
| C=CC(=O)N1CCN(c2ncc3ncnc(Nc4ccc(Cc5ccc6c(c5)ncn6C)c(C)c4)c3n2)[C@@H](C)C1 [Compound 77, 1-[(3S)-3-methyl-4-[8-({3-methyl-4-[(1-methyl-1,3-benzodiazol-5-yl)methyl]phenyl}amino)-[1,3]diazino[5,4-d]pyrimidin-2-yl]piperazin-1-yl]prop-2-en-1-one] | 16.4 | 73.4 | 3550 |
| CC#CC(=O)N1CCN(c2cc3c(Nc4ccc(Oc5ccc6c(c5)ncn6C)c(C)c4)ncnc3cn2)C[C@H]1C [Compound 71, 1-[(2R)-2-methyl-4-[4-({3-methyl-4-[(1-methyl-1,3-benzodiazol-5-yl)oxy]phenyl}amino)pyrido[3,4-d]pyrimidin-6-yl]piperazin-1-yl]but-2-yn-1-one] | 20.4 | 22 | 1020 |
| C=CC(=O)N1CCN(c2ccc3ncnc(Nc4ccc(Oc5ccc6c(c5)ncn6C)c(C)c4)c3c2)C[C@H]1C [Compound 58, 1-[(2R)-2-methyl-4-[4-({3-methyl-4-[(1-methyl-1,3-benzodiazol-5-yl)oxy]phenyl}amino)quinazolin-6-yl]piperazin-1-yl]prop-2-en-1-one] | 24.1 | 31.4 | 2460 |
| C=CC(=O)N1CCN(c2cc3c(Nc4ccc(Cc5ccn6ncnc6c5)c(C)c4)ncnc3cn2)C[C@H]1C [Compound 52, (R)-1-(4-(4-((4-([1,2,4]triazolo[1,5-a]pyridin-7-ylmethyl)-3-methylphenyl)amino)pyrido[3,4-d]pyrimidin-6-yl)-2-methylpiperazin-1-yl)prop-2-en-1-one] | 120 | 50.6 | > 10000 |
| C=CC(=O)N1[C@H](C)CN(c2ccc3ncnc(Nc4ccc(Oc5ccn6ncnc6c5)c(C)c4)c3n2)C[C@@H]1C [Compound 60, 1-(cis-4-(4-((4-([1,2,4]triazolo[1,5-a]pyridin-7-yloxy)-3-methylphenyl)amino)pyrido[3,2-d]pyrimidin-6-yl)-2,6-dimethylpiperazin-1-yl)prop-2-en-1-one] | 14.3 | 23.7 | 3780 |
| C=CC(=O)N1CCN(c2ccc3ncnc(Nc4ccc(Cc5ccn6ncnc6c5)c(C)c4)c3n2)C[C@H]1C [Compound 51, 1-[(2R)-2-methyl-4-{4-[(3-methyl-4-{[1,2,4]triazolo[1,5-a]pyridin-7-ylmethyl}phenyl)amino]pyrido[3,2-d]pyrimidin-6-yl}piperazin-1-yl]prop-2-en-1-one] | 5.71 | 20.9 | 1670 |
| C=CC(=O)N1CCN(c2cc3c(Nc4ccc(Cc5ccc6c(c5)ncn6C)c(C)c4)ncnc3cn2)CC1 [Compound 83, 1-{4-[4-({3-methyl-4-[(1-methyl-1,3-benzodiazol-5-yl)methyl]phenyl}amino)pyrido[3,4-d]pyrimidin-6-yl]piperazin-1-yl}prop-2-en-1-one; formic acid] | 12.5 | 25.5 | 1390 |
| C=CC(=O)N1CCN(c2cc3c(Nc4ccc(Oc5ccn6ncnc6c5)c(C)c4)ncnc3cn2)[C@@H](C)C1 [Compound 69, (S)-1-(4-(4-((4-([1,2,4]triazolo[1,5-a]pyridin-7-yloxy)-3-methylphenyl)amino)pyrido[3,4-d]pyrimidin-6-yl)-3-methylpiperazin-1-yl)prop-2-en-1-one] | 155 | 59.6 | > 10000 |
| C=CC(=O)N1CCN(c2ccc3ncnc(Nc4ccc(Oc5ccc(CC)nc5)c(C)c4)c3n2)CC1 [Compound 124, 1-(4-(4-((4-((6-ethylpyridin-3-yl)oxy)-3-methylphenyl)amino)pyrido[3,2-d]pyrimidin-6-yl)piperazin-1-yl)prop-2-en-1-one] | 35.9 | 138 | 2580 |
| C=CC(=O)N1CCN(c2cc3c(Nc4ccc(Oc5ccc6c(c5)ncn6C)c(C)c4)ncnc3cn2)CC1 [Compound 106, 1-{4-[4-({3-methyl-4-[(1-methyl-1,3-benzodiazol-5-yl)oxy]phenyl}amino)pyrido[3,4-d]pyrimidin-6-yl]piperazin-1-yl}prop-2-en-1-one formic acid] | 10.3 | 18.1 | 1060 |
| Cc1cc(Nc2ncnc3ccc(N4CCN(C(=O)/C=C/CN(C)C)CC4C)c(F)c23)ccc1Cc1ccn2ncnc2c1 (stereo not drawn) [Compound 94, (E)-1-(4-(4-((4-([1,2,4]triazolo[1,5-a]pyridin-7-ylmethyl)-3-methylphenyl)amino)-5-fluoroquinazolin-6-yl)-3-methylpiperazin-1-yl)-4-(dimethylamino)but-2-en-1-one] | > 500 | 160 | > 10000 |

Reference: US20250136595A1, “ACYLATED HETEROCYCLIC QUINAZOLINE DERIVATIVES AS INHIBITORS OF ERBB2” (Enliven Inc., priority 2022, published 2025)
